Source: the NIST ThermoML archive (doi:10.1021/je500381c)

Test: xn = mol fraction of the nth substance listed
Settings: 100 kPa, Liquid; for mass density: Vibrating tube method

OCC1CCCCC1 [cyclohexylmethanol] + CC12CC3CC(C1)CC(C)(C3)C2
Settings	mass density, 313.15 K [kg/m3]	mass density, 318.15 K [kg/m3]	mass density, 323.15 K [kg/m3]	mass density, 328.15 K [kg/m3]	mass density, 333.15 K [kg/m3]	viscosity, 313.15 K [mPa·s]	viscosity, 318.15 K [mPa·s]	viscosity, 323.15 K [mPa·s]	viscosity, 328.15 K [mPa·s]	viscosity, 333.15 K [mPa·s]
x1 = 0.1027	–	884.98	881.29	877.59	873.88	2.56	2.305	2.085	1.894	1.727
x1 = 0.1995	–	886.71	882.99	879.24	875.48	2.841	2.539	2.28	2.057	2.105
x1 = 0.3012	–	888.75	885.01	881.25	877.47	3.229	2.859	2.546	2.279	2.048
x1 = 0.4004	–	891.29	887.53	883.75	879.94	3.764	3.299	2.911	2.58	2.3
x1 = 0.4973	–	893.98	890.21	886.41	882.58	4.377	3.787	3.302	2.898	2.56
x1 = 0.6008	900.87	897.11	893.33	889.51	885.67	5.311	4.529	3.896	3.375	2.946
x1 = 0.7002	904.09	900.37	896.61	892.81	888.98	6.578	5.508	4.604	3.992	3.443
x1 = 0.7892	907.87	904.14	900.37	896.56	892.71	8.883	7.34	6.145	5.076	4.253
x1 = 0.9	911.45	907.74	904	900.21	896.38	11.3	9.262	7.642	6.342	5.984
x1 = 1	915.53	911.88	908.19	904.45	900.67	14.09	11.43	9.354	7.766	6.462
